The test system of one assay is SARS-CoV-2 virus. Kind of assay: Antiviral potentiality against SARS-CoV-2. Type of assay: cell-based. As to conditions: isolate of SARS-CoV-2.
Assay [1] deals with plasma C-Reactive Protein (CRP) and procalcitonin. As to conditions: ref [7], [8], [9]; cited from earlier work.

Molecules are shown by their SMILES.

As to `N[C@@H](CC(=O)N1CCn2c(nnc2C(F)(F)F)C1)Cc1cc(F)c(F)cc1F` [SIT, Sitagliptin], the “antiviral activity against SARS-CoV-2 in words” value in the assay on SARS-CoV-2 virus was “have antiviral activity against an isolate of SARS-CoV-2”. Further, the “possible immuno-modulatory effect: plasma CRP and procalcitonin” value in assay [1] was “plasma C-Reactive Protein (CRP) and procalcitonin reduction”.

The record behind these values is publication PMC8349443 (Journal of the Indian Chemical Society, 2021).
